The test system of one data set is tumor growth. The note with it: murine model ovarian cancer, Xu et al. 2012; cited from earlier work.
For data set [1], the system named is platelet accumulation at sites of laser-induced injury. Briefly: Thrombus formation in cremaster arterioles after laser-induced injury, intravital microscopy. The class given is in vivo. The note with it: mice. How it is done:
Intravital video microscopy of the cremaster muscle microcirculation was performed as described previously in Falati, S., Gross, P., Merrill-Skoloff, G., Furie, B. C. & Furie, Nat Med 8, 1175-81. (2002); and Jasuj a, R. et al., J Clin Invest 122, 2104-2113 (2012). Digital images were captured with an Orca Flash 4.0v2 sCMOS camera (Hamamatsu Photonics K.K., Shizuoka Pref., Japan). Representative images are presented, but the median curves include the full data. The kinetics of platelet thrombus formation were analyzed by determining median fluorescence values over time in ˜30-40 thrombi in three mice.
Two hours prior to surgery, 100 mg/kg of the suicide P450 inhibitor 1-aminobenzotriazole (ABT) was administered intraperioneally to each mouse. The cremaster muscle was then surgically exposed. Prior to arteriolar wall injury, DyLight-labeled antibodies were infused intravenously together with drug or vehicle control. Injury to a cremaster arteriolar vessel (30-50-μm diameter) was induced with a MicroPoint laser system Andor Andor Technology, Ltd., Belfast Ireland) focused through the microscope objective, parfocal with the focal plane and tuned to 440 nm through a dye cell containing 5 mM coumarin in methanol. Data were captured digitally from two fluorescence channels, 488/520 nm and 647/670 nm, as well as a brightfield channel Data acquisition was initiated both prior to and following an ablation laser pulse for each injury. The microscope system was controlled and images were collected and analyzed using SlideBook 6.0 (Intelligent Imaging Innovations, Denver, Colo.).
Prior to induction of the thrombus but after injection of the fluorescently labeled antibody, approximately 30 time points were recorded. Subsequently, a thrombus is initiated and recorded for approximately 170 seconds. […] The mean of maximal intensity values in the upstream region for each frame is calculated and used as the threshold to define those pixels containing signal. […] Using this information, the actual integrated intensity for each frame is calculated according to the following formula: […]

For the compound `C#CC(=O)N(c1ccc(OC)cc1OC)C(C(=O)NCC(=O)OCC)c1cccs1` (stereo not shown) [PACMA-31, N-(2,4-Dimethoxyphenyl)-N-(1-oxo-2-propyn-1-yl)-2-(2-thienyl)glycyl-glycine ethyl ester, reference compound], the tumor growth result in the data set with tumor growth was “impairs tumor growth”.
As for `CCOC(=O)c1c(CNCCN(CC)CC)n(-c2ccccc2)c2cc(Br)c(O)cc12` [bepristat 2a], the tolerability in vivo entry in data set [1] (15 mg/kg infusion) was “tolerated in vivo”. The “inhibition of platelet accumulation at sites of laser-induced injury” value in data set [1] (infusion 15 mg/kg body weight, p=0.02, FIG. 3c) is 14.9 % of controls. For the same compound, the “thrombus formation in vivo” value in data set [1] (laser injury of cremaster arterioles) was “potently inhibits thrombus formation”.

The values are drawn from patent US20180370912A1, “COMPOUNDS AND METHODS FOR TREATING DISEASES MEDIATED BY PROTEIN DISULFIDE ISOMERASE” (Beth Israel Deaconess Medical Center, Inc., priority 2017, published 2018).
